Test results as given in PubChem BioAssay AID248 (DTP/NCI, 2004).
Several values for one entry are separate records, joined by “and”; a condition that tells them apart may be missing. Equal values may be shown once. Inconclusive results and toxic doses are left out. No stated cut-off is given here; in the data, active means T/C of 150% or more; inactive means T/C below 125%.

Tested on: L1210 leukemia ip in BDF1 mice, survival T/C
Assay: NCI In Vivo Anticancer Drug Screen. Data for tumor model L1210 Leukemia (intraperitoneal) in B6D2F1 (BDF1) mice
Conditions: higher = longer survival
Method in brief: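 Ratio derived from survival: compound-dosed mice over vehicle-dosed mice, all bearing a transplantable tumor.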

[1] = endpoint: mean survival time, dose: 25.0 mg/kg/injection, schedule: Q01DX009 (ip), vehicle: Klucel (hydroxypropylcellulose) (HPC)
[2] = endpoint: mean survival time, dose: 50.0 mg/kg/injection, schedule: Q01DX009 (ip), vehicle: Klucel (hydroxypropylcellulose) (HPC)
[3] = endpoint: mean survival time, dose: 100.0 mg/kg/injection, schedule: Q01DX001 (ip), vehicle: saline
[4] = endpoint: mean survival time, dose: 100.0 mg/kg/injection, schedule: Q01DX009 (ip), vehicle: Klucel (hydroxypropylcellulose) (HPC)
[5] = endpoint: mean survival time, dose: 200.0 mg/kg/injection, schedule: Q01DX001 (ip), vehicle: saline
[6] = endpoint: mean survival time, dose: 400.0 mg/kg/injection, schedule: Q01DX001 (ip), vehicle: saline
[7] = endpoint: mean survival time, dose: 100.0 mg/kg/injection, schedule: Q01DX001 (ip), vehicle: carboxymethylcellulose (CMC)
[8] = endpoint: mean survival time, dose: 200.0 mg/kg/injection, schedule: Q01DX001 (ip), vehicle: carboxymethylcellulose (CMC)
[9] = endpoint: mean survival time, dose: 400.0 mg/kg/injection, schedule: Q01DX001 (ip), vehicle: carboxymethylcellulose (CMC)
[10] = endpoint: mean survival time, dose: 100.0 mg/kg/injection, schedule: Q01DX009 (ip), vehicle: saline
[11] = endpoint: mean survival time, dose: 100.0 mg/kg/injection, schedule: Q04DX003 (ip), vehicle: saline
[12] = endpoint: mean survival time, dose: 200.0 mg/kg/injection, schedule: Q01DX009 (ip), vehicle: saline
[13] = endpoint: mean survival time, dose: 200.0 mg/kg/injection, schedule: Q04DX003 (ip), vehicle: saline
[14] = endpoint: mean survival time, dose: 400.0 mg/kg/injection, schedule: Q04DX003 (ip), vehicle: saline

Measured: T/C

O=C(SCCN1CCCC1)N1c2ccccc2Sc2ccc(Cl)cc21
inactive: endpoint: mean survival time, dose: 75.0 mg/kg/injection, schedule: Q01DX001 (ip), vehicle: carboxymethylcellulose (CMC) 94 % of control | endpoint: mean survival time, dose: 150.0 mg/kg/injection, schedule: Q01DX001 (ip), vehicle: carboxymethylcellulose (CMC) 94 % of control

CSCS(=O)C[C@H](CO)NC(=O)/C=C/c1c(C)[nH]c(=O)[nH]c1=O (stereo partly drawn)
inactive: endpoint: mean survival time, dose: 0.38 mg/kg/injection, schedule: Q01DX001 (ip), vehicle: saline 105 % of control | endpoint: mean survival time, dose: 0.39 mg/kg/injection, schedule: Q04DX002 (ip), vehicle: Klucel (hydroxypropylcellulose) (HPC) 96 % of control | endpoint: mean survival time, dose: 0.75 mg/kg/injection, schedule: Q01DX001 (ip), vehicle: saline 103 % of control | endpoint: mean survival time, dose: 0.75 mg/kg/injection, schedule: Q01DX Z (ip), vehicle: carboxymethylcellulose (CMC) 86 % of control | endpoint: mean survival time, dose: 0.78 mg/kg/injection, schedule: Q04DX002 (ip), vehicle: Klucel (hydroxypropylcellulose) (HPC) 96 % of control | endpoint: mean survival time, dose: 1.1 mg/kg/injection, schedule: Q01DX001 (ip), vehicle: carboxymethylcellulose (CMC) 106 % of control | endpoint: mean survival time, dose: 1.5 mg/kg/injection, schedule: Q01DX001 (ip), vehicle: saline 116 % of control | endpoint: mean survival time, dose: 1.56 mg/kg/injection, schedule: Q04DX002 (ip), vehicle: Klucel (hydroxypropylcellulose) (HPC) 110 % of control | endpoint: mean survival time, dose: 1.7 mg/kg/injection, schedule: Q01DX001 (ip), vehicle: carboxymethylcellulose (CMC) 112 % of control | endpoint: mean survival time, dose: 2.6 mg/kg/injection, schedule: Q01DX001 (ip), vehicle: carboxymethylcellulose (CMC) 112 % of control | endpoint: mean survival time, dose: 3.0 mg/kg/injection, schedule: Q01DX001 (ip), vehicle: saline 111 % of control | endpoint: mean survival time, dose: 3.13 mg/kg/injection, schedule: Q04DX002 (ip), vehicle: Klucel (hydroxypropylcellulose) (HPC) 104 % of control | endpoint: median survival time, dose: 4.0 mg/kg/injection, schedule: Q04DX003 (ip), vehicle: saline 121 % of control

CN1C(=O)CC2(CCN(CCCC(=O)c3ccc(F)cc3)CC2)C1=O
inactive: endpoint: mean survival time, dose: 3.12 mg/kg/injection, schedule: Q01DX009 (ip), vehicle: saline 103 % of control and 108 % of control | endpoint: mean survival time, dose: 6.25 mg/kg/injection, schedule: Q01DX009 (ip), vehicle: Klucel (hydroxypropylcellulose) (HPC) 100 % of control | endpoint: mean survival time, dose: 6.25 mg/kg/injection, schedule: Q01DX009 (ip), vehicle: saline 100 % of control and 101 % of control and 108 % of control | endpoint: mean survival time, dose: 12.5 mg/kg/injection, schedule: Q01DX009 (ip), vehicle: Klucel (hydroxypropylcellulose) (HPC) 95 % of control | endpoint: mean survival time, dose: 12.5 mg/kg/injection, schedule: Q01DX009 (ip), vehicle: saline 106 % of control and 112 % of control and 115 % of control | [1] 101 % of control | endpoint: mean survival time, dose: 25.0 mg/kg/injection, schedule: Q01DX009 (ip), vehicle: saline 110 % of control | endpoint: mean survival time, dose: 25.0 mg/kg/injection, schedule: Q04DX003 (ip), vehicle: alcohol 108 % of control | [2] 110 % of control | endpoint: mean survival time, dose: 50.0 mg/kg/injection, schedule: Q01DX009 (ip), vehicle: saline 120 % of control and 124 % of control | endpoint: mean survival time, dose: 50.0 mg/kg/injection, schedule: Q04DX003 (ip), vehicle: alcohol 106 % of control | endpoint: mean survival time, dose: 100.0 mg/kg/injection, schedule: Q04DX003 (ip), vehicle: alcohol 106 % of control

O=C1C=C2CCCC(=O)C2(Cc2ccccc2)CC1 (stereo not drawn)
inactive: endpoint: mean survival time, dose: 100.0 mg/kg/injection, schedule: Q01DX009 (ip), vehicle: alcohol 103 % of control | endpoint: mean survival time, dose: 200.0 mg/kg/injection, schedule: Q01DX009 (ip), vehicle: alcohol 92 % of control | endpoint: mean survival time, dose: 400.0 mg/kg/injection, schedule: Q01DX009 (ip), vehicle: alcohol 96 % of control

c1ccc2ncc(-c3ccc4ccccc4n3)cc2c1
inactive: endpoint: mean survival time, dose: 100.0 mg/kg/injection, schedule: Q01DX001 (ip), vehicle: Klucel (hydroxypropylcellulose) (HPC) 100 % of control | [3] 107 % of control | [4] 97 % of control and 116 % of control | endpoint: mean survival time, dose: 200.0 mg/kg/injection, schedule: Q01DX001 (ip), vehicle: Klucel (hydroxypropylcellulose) (HPC) 94 % of control | [5] 96 % of control | endpoint: mean survival time, dose: 200.0 mg/kg/injection, schedule: Q01DX009 (ip), vehicle: Klucel (hydroxypropylcellulose) (HPC) 95 % of control and 101 % of control | endpoint: mean survival time, dose: 400.0 mg/kg/injection, schedule: Q01DX001 (ip), vehicle: Klucel (hydroxypropylcellulose) (HPC) 100 % of control | [6] 96 % of control | endpoint: mean survival time, dose: 400.0 mg/kg/injection, schedule: Q01DX009 (ip), vehicle: Klucel (hydroxypropylcellulose) (HPC) 94 % of control and 100 % of control

COc1ccc(CN2CCCN(Cc3ccc(OC)cc3OC)C2c2cc([N+](=O)[O-])ccc2O)c(OC)c1
inactive: endpoint: mean survival time, dose: 50.0 mg/kg/injection, schedule: Q01DX001 (ip), vehicle: carboxymethylcellulose (CMC) 107 % of control | [7] 98 % of control | [8] 101 % of control | [9] 98 % of control

O=S(=O)(c1ccccc1)C1CCCCC1Cl (stereo not drawn)
inactive: [7] 95 % of control | [8] 98 % of control | [9] 101 % of control

NC(=O)C1(c2ccccc2)CC1
inactive: [10] 100 % of control | [11] 88 % of control | [12] 103 % of control | [13] 93 % of control | [14] 107 % of control

O=S(=O)(CCCl)Cc1ccccc1
inactive: endpoint: mean survival time, dose: 100.0 mg/kg/injection, schedule: Q04DX002 (ip), vehicle: saline with Tween-80 115 % of control | endpoint: mean survival time, dose: 200.0 mg/kg/injection, schedule: Q04DX002 (ip), vehicle: saline with Tween-80 94 % of control

S=P(c1ccccc1)(c1cccc2ccccc12)c1cccc2ccccc12
inactive: [3] 93 % of control | [5] 96 % of control | [6] 93 % of control

O=C1c2cccc3c([N+](=O)[O-])ccc(c23)C(=O)N1CCCN1CCOCC1
inactive: [1] 104 % of control | [2] 98 % of control | [4] 93 % of control and 87 % of control

COC(=O)Cc1ccc2c(c1)OCO2
inactive: [3] 97 % of control | [5] 101 % of control | [6] 103 % of control

CC(C)N(CCO)CC1C(c2ccccc2)C1c1ccccc1 (stereo not drawn)
inactive: endpoint: mean survival time, dose: 25.0 mg/kg/injection, schedule: Q04DX002 (ip), vehicle: Klucel (hydroxypropylcellulose) (HPC) 97 % of control | endpoint: mean survival time, dose: 50.0 mg/kg/injection, schedule: Q04DX002 (ip), vehicle: Klucel (hydroxypropylcellulose) (HPC) 100 % of control | endpoint: mean survival time, dose: 100.0 mg/kg/injection, schedule: Q04DX002 (ip), vehicle: Klucel (hydroxypropylcellulose) (HPC) 97 % of control

N#CC12CC3CC(CC(C3)C1)C2
inactive: endpoint: mean survival time, dose: 5.0 mg/kg/injection, schedule: Q01DX009 (ip), vehicle: saline with Tween-80 104 % of control | endpoint: mean survival time, dose: 10.0 mg/kg/injection, schedule: Q01DX009 (ip), vehicle: saline with Tween-80 98 % of control | endpoint: mean survival time, dose: 20.0 mg/kg/injection, schedule: Q01DX001 (ip), vehicle: carboxymethylcellulose (CMC) 96 % of control | endpoint: mean survival time, dose: 20.0 mg/kg/injection, schedule: Q01DX009 (ip), vehicle: saline with Tween-80 112 % of control | endpoint: mean survival time, dose: 40.0 mg/kg/injection, schedule: Q01DX001 (ip), vehicle: carboxymethylcellulose (CMC) 95 % of control | endpoint: mean survival time, dose: 80.0 mg/kg/injection, schedule: Q01DX001 (ip), vehicle: carboxymethylcellulose (CMC) 96 % of control

CNS(=O)(=O)c1ccccc1C(C)(O)c1ccccc1 (stereo not drawn)
inactive: [3] 97 % of control | [5] 103 % of control | [6] 97 % of control

COc1cccc2c1C(=O)c1c(OC)c(CO)cc(OC)c1C2=O
inactive: endpoint: mean survival time, dose: 12.5 mg/kg/injection, schedule: Q01DX009 (ip), vehicle: water 93 % of control | endpoint: mean survival time, dose: 25.0 mg/kg/injection, schedule: Q01DX009 (ip), vehicle: water 91 % of control | endpoint: mean survival time, dose: 50.0 mg/kg/injection, schedule: Q01DX009 (ip), vehicle: water 87 % of control | endpoint: mean survival time, dose: 100.0 mg/kg/injection, schedule: Q01DX009 (ip), vehicle: water 97 % of control | endpoint: mean survival time, dose: 200.0 mg/kg/injection, schedule: Q01DX009 (ip), vehicle: water 95 % of control

O=C(Nc1ccc([N+](=O)[O-])cc1Cl)Oc1ccc(OCc2ccccc2)cc1
inactive: endpoint: mean survival time, dose: 100.0 mg/kg/injection, schedule: Q04DX003 (ip), vehicle: Klucel (hydroxypropylcellulose) (HPC) 91 % of control | endpoint: mean survival time, dose: 200.0 mg/kg/injection, schedule: Q04DX003 (ip), vehicle: Klucel (hydroxypropylcellulose) (HPC) 91 % of control | endpoint: mean survival time, dose: 400.0 mg/kg/injection, schedule: Q04DX003 (ip), vehicle: Klucel (hydroxypropylcellulose) (HPC) 96 % of control

NCC(=O)NC(CO)C(=O)O (stereo not drawn)
inactive: [10] 106 % of control | [11] 110 % of control | [12] 101 % of control | [13] 103 % of control | endpoint: mean survival time, dose: 400.0 mg/kg/injection, schedule: Q01DX009 (ip), vehicle: saline 95 % of control | [14] 100 % of control
